T1: Solute carrier organic anion transporter family member 1B1 (Homo sapiens, UniProt Q9Y6L6)
T1 sequence (Q9Y6L6 whole entry): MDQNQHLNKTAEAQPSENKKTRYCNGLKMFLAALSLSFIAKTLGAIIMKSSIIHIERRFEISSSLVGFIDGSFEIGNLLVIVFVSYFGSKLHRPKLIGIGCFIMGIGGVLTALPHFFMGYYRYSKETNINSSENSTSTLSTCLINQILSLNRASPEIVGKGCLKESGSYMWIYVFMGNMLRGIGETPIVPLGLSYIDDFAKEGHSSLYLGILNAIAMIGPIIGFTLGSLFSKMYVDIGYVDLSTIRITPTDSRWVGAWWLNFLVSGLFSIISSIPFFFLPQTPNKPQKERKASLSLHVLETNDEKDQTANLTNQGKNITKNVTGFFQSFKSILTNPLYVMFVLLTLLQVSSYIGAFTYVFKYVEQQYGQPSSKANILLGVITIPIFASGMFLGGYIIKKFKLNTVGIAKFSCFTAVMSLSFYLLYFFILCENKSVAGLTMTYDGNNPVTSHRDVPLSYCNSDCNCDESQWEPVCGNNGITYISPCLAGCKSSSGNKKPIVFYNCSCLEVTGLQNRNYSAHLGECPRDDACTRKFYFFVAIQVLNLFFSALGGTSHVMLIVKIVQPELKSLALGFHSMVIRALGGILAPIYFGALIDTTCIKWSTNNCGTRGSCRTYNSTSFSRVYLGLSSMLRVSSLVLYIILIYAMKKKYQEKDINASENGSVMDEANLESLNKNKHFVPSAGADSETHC


Experiments:
[1] = molecular target: T1, Solute carrier organic anion transporter family member 1B1; assay: (§1) TP_TRANSPORTER: uptake in Xenopus laevis oocytes; type: functional, cell-based; conditions: oocyte
[2] = substrate: N[C@@H](Cc1cc(I)c(Oc2cc(I)c(O)c(I)c2)c(I)c1)C(=O)O; assay: as §1; type: functional, cell-based, Oocyte
[3] = substrate: N[C@@H](Cc1cc(I)c(Oc2ccc(O)c(I)c2)c(I)c1)C(=O)O; assay: as §1; type: functional, cell-based, Oocyte

| Molecule | Activity [1] | Km [2] | Km [3] |
| --- | --- | --- | --- |
| CCCCC/C=C\C\C=C/C=C/C=C/[C@@H](SC[C@H](N)C(=O)O)[C@@H](O)CCCC(=O)O [LEUKOTRIEN E4] | substrate [+] | – | – |
| CCCCC[C@H](O)/C=C/[C@H]1OC(O)C[C@H](O)[C@@H]1C/C=C\CCCC(=O)O (stereo partly drawn) [THROMBOXANE B2] | substrate [+] | – | – |
| CCCCC/C=C\C\C=C/C=C/C=C/[C@@H](SC[C@@H](NC(=O)CC[C@H](N)C(=O)O)C(=O)NCC(=O)O)[C@@H](O)CCCC(=O)O [LEUKOTRIEN C4] | substrate [+] | – | – |
| CCCCC[C@H](O)/C=C/[C@H]1[C@H](O)CC(=O)[C@@H]1C/C=C\CCCC(=O)O [DINOPROSTONE] | substrate [+] | – | – |
| C[C@]12CC[C@H](OS(=O)(=O)O)CC1=CC[C@@H]1[C@@H]2CC[C@]2(C)C(=O)CC[C@@H]12 [PRASTERONE SULFURIC ACID] | substrate [+] | – | – |
| C[C@]12CC[C@@H]3c4ccc(O)cc4CC[C@H]3[C@@H]1CC[C@@H]2O[C@@H]1O[C@H](C(=O)O)[C@@H](O)[C@H](O)[C@H]1O [ESTRADIOL 17B GLUCURONIDE] | substrate [+] | – | – |
| Solute carrier organic anion transporter family member 1B1 (Homo sapiens) (protein) MDQNQHLNKTAEAQPSENKKTRYCNGLKMFLAALSLSFIAKTLGAIIMKSSIIHIERRFEISSSLVGFIDGSFEIGNLLVIVFVSYFGSKLHRPKLIGIGCFIMGIGGVLTALPHFFMGYYRYSKETNINSSENSTSTLSTCLINQILSLNRASPEIVGKGCLKESGSYMWIYVFMGNMLRGIGETPIVPLGLSYIDDFAKEGHSSLYLGILNAIAMIGPIIGFTLGSLFSKMYVDIGYVDLSTIRITPTDSRWVGAWWLNFLVSGLFSIISSIPFFFLPQTPNKPQKERKASLSLHVLETNDEKDQTANLTNQGKNITKNVTGFFQSFKSILTNPLYVMFVLLTLLQVSSYIGAFTYVFKYVEQQYGQPSSKANILLGVITIPIFASGMFLGGYIIKKFKLNTVGIAKFSCFTAVMSLSFYLLYFFILCENKSVAGLTMTYDGNNPVTSHRDVPLSYCNSDCNCDESQWEPVCGNNGITYISPCLAGCKSSSGNKKPIVFYNCSCLEVTGLQNRNYSAHLGECPRDDACTRKFYFFVAIQVLNLFFSALGGTSHVMLIVKIVQPELKSLALGFHSMVIRALGGILAPIYFGALIDTTCIKWSTNNCGTRGSCRTYNSTSFSRVYLGLSSMLRVSSLVLYIILIYAMKKKYQEKDINASENGSVMDEANLESLNKNKHFVPSAGADSETHC | – | 3 µM | 2.7 µM |
